US5070210A, “Novel ketenimines as intermediates for insecticides” (ICI Americas Inc., priority 1990, dated 1991)

Key:
Type in all cases: in vivo
[1] = system: Tobacco Budworm [Heliothis virescens (Fabricius)] eggs; experiment: Tobacco budworm egg test; details: 2-day old eggs, percent in solution
In short: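 Mortality of dipped eggs served as read-out, recorded after untreated controls hatched and began feeding. Treatments used acetone solutions from 0.1% downward, with eggs incubated at 78° F; LC50 is expressed as percent of compound in the solution.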

[2] = system: Cabbage Looper [Trichoplusia ni (Hubner)]; experiment: Cabbage looper insecticidal test; details: second-instar larvae, percent in solution; 3-5 days
In short: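 Steps: dilute compound in 50-50 acetone-water from 0.1% downward; immerse cotyledon pieces 2-3 s and dry; place in humid petri dishes with five second-instar larvae; record mortality at 3-5 days. Dosage-mortality curves yield LC50 as percent in solution.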

[3] = system: Housefly [Musca domestica]; experiment: Housefly insecticidal test; details: μg per 25 female flies; mortality after 48 hours
In short: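 Dry-film exposure of 25 female houseflies per cage, 48 h; LC50 as μg per 25 flies.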

SMILES	LC50, TBW, E (TBW-E) [1]	LC50, CL [2]	LC50, HF [3]
Cc1ccc(Cl)cc1N=C(OCc1cccc(Oc2ccccc2)c1)C(C)C [Compound 263]	> 0.1%	0.05%	> 100 µg
COc1ccc(Cl)cc1N=C(OCc1cccc(Oc2ccccc2)c1)C(C)C [Compound 264]	> 0.1%	0.03%	> 100 µg
CC(C)C(=Nc1ccc(F)cc1)OCc1cccc(Oc2ccc(F)c(F)c2)c1 [Compound 265]	0.07%	0.00025%	10 µg
CC(C)C(=Nc1cccc(SC(F)(F)F)c1)OCc1cccc(Oc2ccc(F)cc2)c1 [Compound 272]	> 0.1%	0.0024%	> 100 µg
CC(C)C(=Nc1ccc2c(c1)OCO2)OCc1cc(Oc2ccc(F)cc2)ccc1Cl [Compound 274]	> 0.1%	0.1%	> 100 µg
CC(C)C(=Nc1ccc(F)c(F)c1)OCc1cccc(Oc2ccc(Br)cc2)c1 [Compound 275]	0.045%	0.00012%	21 µg
CC(C)C(=Nc1ccc(F)c(Br)c1)OCc1cccc(Oc2ccc(Br)cc2)c1 [Compound 276]	0.1%	0.002%	39 µg
CC(C)C(=Nc1ccc(C2CCCCC2)cc1)OCc1cccc(Oc2ccc(F)cc2)c1 [Compound 280]	> 0.1%	0.024%	> 100 µg
CC(C)C(=Nc1ccc(C(F)(F)F)cc1)OCc1ccc(F)c(Oc2ccc(F)cc2)c1 [Compound 287]	> 0.1%	0.0025%	> 100 µg
CC(C)C(=Nc1cccc(OC(F)(F)C(F)F)c1)OCc1cccc(Oc2ccc(F)cc2)c1 [Compound 288]	> 0.1%	0.0015%	> 100 µg
CCC(CC)C(=Nc1ccc(Cl)cc1)OCc1cccc(Oc2ccc(F)cc2)c1 [Compound 290]	> 0.1%	0.017%	> 100 µg
CCC(CC)C(=Nc1cccc(C(F)(F)F)c1)OCc1cccc(Oc2ccc(F)cc2)c1 [Compound 291]	> 0.1%	0.004%	> 100 µg
CC(Br)C(=Nc1ccc(F)c(Cl)c1)OCc1cccc(Oc2ccc(F)cc2)c1 (stereo not drawn) [Compound 305]	> 0.1%	0.048%	> 100 µg
CC(C)C(=Nc1ccc(C(C)(C)C)c(Cl)c1)OCc1cccc(Oc2ccc(F)cc2)c1 [Compound 308]	> 0.1%	0.009%	> 100 µg
CC(C)(F)C(=Nc1ccc(F)c(Cl)c1)OCc1cccc(Oc2ccc(F)cc2)c1 [Compound 309]	0.07%	0.00017%	> 100 µg
CC(C)C(=Nc1ccc(Cl)cc1Cl)OCc1cccc(Oc2ccccc2)c1 [Compound 311]	0.1%	0.0017%	22 µg
CC(C)C(=Nc1ccc(Cl)cc1Cl)OCc1cccc(Oc2ccc(F)cc2)c1 [Compound 312]	> 0.1%	0.006%	> 100 µg
CC(C)C(=Nc1ccc2c(c1)OCO2)OCc1ccc(F)c(Oc2ccc(Cl)cc2)c1 [Compound 313]	0.013%	0.00025%	> 100 µg
CCC(C)C(=Nc1ccc(C(C)C)cc1)OCc1cccc(Oc2ccccc2)c1 (stereo not drawn) [Compound 317]	0.03%	0.0045%	> 100 µg
CC(C)(F)C(=Nc1ccc(F)c(F)c1)OCc1cccc(Oc2ccc(F)cc2)c1 [Compound 318]	> 0.1%	0.0007%	19 µg

SMILES	LC50, TBW, E (TBW-E) [1]	LC50, CL [2]	LC50, HF [3]
CC(C)(F)C(=Nc1cccc(C(F)(F)F)c1)OCc1cccc(Oc2ccc(F)cc2)c1 [Compound 319]	> 0.1%	0.0007%	44 µg
CCC(=Nc1ccc(C(C)C)cc1)OCc1cccc(Oc2ccc(F)cc2)c1 [Compound 320]	> 0.1%	0.0075%	> 100 µg
CCC(CC)C(=Nc1ccc(C(C)C)cc1)OCc1cccc(Oc2ccccc2)c1 [Compound 321]	> 0.1%	0.05%	> 100 µg
CC(C)c1ccc(N=C(OCc2cccc(Oc3ccc(F)cc3)c2)C(C)(C)C)cc1 [Compound 322]	> 0.1%	0.007%	> 100 µg
CC(C)C(=Nc1ccc(F)c(Cl)c1)OCc1cc(F)cc(Oc2ccc(F)cc2)c1 [Compound 327]	> 0.1%	0.005%	> 100 µg
CC(C)CC(=Nc1ccc(C(C)C)cc1)OCc1cccc(Oc2ccc(F)cc2)c1 [Compound 329]	> 0.1%	0.033%	7 µg
CC(C)C(=Nc1ccc(F)c(Cl)c1)OCc1cccc(Oc2ccc(I)cc2)c1 [Compound 447]	> 0.1%	0.0009%	33 µg
CC(C)C(=Nc1ccc(F)c(Cl)c1)OCc1ccc(Cl)c(Oc2ccc(F)cc2)c1 [Compound 448]	0.03%	0.003%	16 µg
Fc1c(F)c(F)c(COC(=Nc2cccc(Cl)c2Cl)C(Cl)Cl)c(F)c1F [Compound 454]	> 0.1%	0.03%	> 100 µg
Cc1c(COC(=Nc2ccc(Cl)cc2)C(C)C)cccc1-c1ccccc1 [Compound 455]	> 0.1%	0.0025%	> 100 µg
Cc1c(COC(=Nc2ccc(F)cc2)C(C)C)cccc1-c1ccccc1 [Compound 458]	> 0.05%	0.007%	100 µg
CC(C)C(=Nc1ccc2c(c1)OCO2)OCc1c(F)c(F)c(F)c(F)c1F [Compound 464]	> 0.1%	0.08%	> 100 µg
CC(C)C(=Nc1ccc2c(c1)OCO2)OCc1cccc(Oc2ccccc2)n1 [Compound 467]	0.04%	0.003%	6 µg
CC(C)C(=Nc1ccc2c(c1)OC(C)(C)O2)OCc1cccc(Oc2ccc(Cl)cc2)n1 [Compound 468]	> 0.1%	> 0.1%	50 µg
CC(C)C(=Nc1cccc(C(F)(F)F)c1)OCc1cccc(Oc2ccncc2)c1 [Compound 469]	> 0.1%	0.02%	40 µg
CC(C)C(=Nc1ccc(F)c(Cl)c1)OCc1cccc(Oc2ccncc2)c1 [Compound 470]	> 0.1%	0.02%	25 µg
CC(C)C(=Nc1ccc(F)c(Cl)c1)OCc1cccc(OCc2ccccc2)c1 [Compound 472]	> 0.1%	0.0025%	> 100 µg
CC(C)C(=Nc1ccc(F)c(Cl)c1)OCc1ccc(F)c(Br)c1 [Compound 473]	> 0.1%	0.025%	> 100 µg
CC(C)C(=Nc1ccc(F)c(Cl)c1)OCc1coc(Cc2ccccc2)c1 [Compound 474]	> 0.1%	0.0012%	8 µg
CC(C)C(=Nc1cccc(C(F)(F)F)c1)OCc1ccc(OCc2ccccc2)cc1 [Compound 476]	> 0.1%	0.015%	> 100 µg
